Assay results as given in BindingDB's records for patent US10117944 (Madrigal Pharmaceuticals, 2018).

Target: Receptor tyrosine-protein kinase erbB-2 (Homo sapiens, UniProt P04626)
Experiment: HER2 Degradation Assay with BT-474 Cell Line
Source text: HER2 has emerged as a key target for anticancer drugs due to its intrinsic involvement in the phosphatidylinositol-3-kinase-Akt/protein kinase B (PI3 K-Akt) and the mitogen-activated protein kinase (MAPK) pathways, both of which suppress apoptosis and promote tumor cell survival, gene transcription, angiogenesis, cellular proliferation, migration, mitosis, and differentiation. The degradation of HER2 is a measure of efficacy of anticancer therapeutics that target Hsp90. Accordingly, the SDC-TRAP molecules of the invention that comprise a binding moiety that binds Hsp90 were tested in the following HER2 degradation assay.BT-474 cells (human breast cancer cell line ATCC HTB-20) were obtained from ATCC and seeded into 12-well tissue culture plates at 0.2x106/1.8 mL/well. […] Each test compound was titrated in 4-fold dilutions from 5 μM to 78 nM with DMSO and 200 μL of the titration was added to each well of the cell plate. The DMSO final concentration was 0.2%. Cells were incubated overnight at 37° C. in 5% CO2.Media was decanted from the plate, cells were washed 1x in PBS. 400 μL trypsin (EDTA) per well was added, and the cells were incubated for 2 to 3 minutes. […] The cytometer readout was normalized and the potency of each compound was evaluated with IC50 calculated with XLfit software.

Receptor tyrosine-protein kinase erbB-2, sequence (P04626 whole entry): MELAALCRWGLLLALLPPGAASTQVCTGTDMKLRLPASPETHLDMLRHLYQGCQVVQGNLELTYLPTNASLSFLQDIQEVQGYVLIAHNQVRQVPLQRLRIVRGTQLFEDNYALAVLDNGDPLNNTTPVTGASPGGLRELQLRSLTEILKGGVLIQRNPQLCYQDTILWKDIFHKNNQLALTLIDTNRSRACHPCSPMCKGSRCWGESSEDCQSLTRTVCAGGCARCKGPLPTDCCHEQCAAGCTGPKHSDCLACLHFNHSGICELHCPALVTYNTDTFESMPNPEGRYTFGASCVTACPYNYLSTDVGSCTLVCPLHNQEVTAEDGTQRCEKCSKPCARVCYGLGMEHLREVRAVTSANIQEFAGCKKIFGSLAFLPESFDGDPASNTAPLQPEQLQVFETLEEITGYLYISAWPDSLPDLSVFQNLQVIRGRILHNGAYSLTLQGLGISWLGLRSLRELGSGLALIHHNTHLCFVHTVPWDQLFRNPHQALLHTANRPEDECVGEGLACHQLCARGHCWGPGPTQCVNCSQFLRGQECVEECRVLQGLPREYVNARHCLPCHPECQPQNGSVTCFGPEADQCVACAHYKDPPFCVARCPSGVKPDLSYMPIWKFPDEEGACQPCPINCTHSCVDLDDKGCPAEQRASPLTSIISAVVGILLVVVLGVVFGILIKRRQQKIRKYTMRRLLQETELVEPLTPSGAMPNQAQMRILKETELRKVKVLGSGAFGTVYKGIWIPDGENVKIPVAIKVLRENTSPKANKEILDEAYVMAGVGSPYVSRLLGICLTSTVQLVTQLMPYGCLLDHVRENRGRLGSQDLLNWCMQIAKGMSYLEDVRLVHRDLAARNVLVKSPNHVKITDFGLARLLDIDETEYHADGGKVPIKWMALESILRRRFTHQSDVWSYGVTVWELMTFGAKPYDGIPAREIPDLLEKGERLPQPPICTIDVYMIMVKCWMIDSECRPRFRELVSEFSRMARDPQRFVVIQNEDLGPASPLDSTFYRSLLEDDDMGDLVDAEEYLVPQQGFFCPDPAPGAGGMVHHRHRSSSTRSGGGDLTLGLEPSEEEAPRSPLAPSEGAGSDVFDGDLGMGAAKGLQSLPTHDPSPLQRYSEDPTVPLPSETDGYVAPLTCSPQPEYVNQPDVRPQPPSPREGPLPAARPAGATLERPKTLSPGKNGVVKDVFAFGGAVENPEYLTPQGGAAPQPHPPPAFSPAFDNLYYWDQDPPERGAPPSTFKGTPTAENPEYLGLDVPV

CC(C)C[C@H](NC(=O)[C@H](Cc1ccccc1)NC(=O)c1cnccn1)B1O[C@H]2C[C@H]3C[C@H](C3(C)C)[C@@]2(CC(=O)N2CCC(CCn3ccc4cc(N(C(=N)c5cc(C(C)C)c(O)cc5O)C(N)=O)ccc43)CC2)O1 [US10117944, Compound SDC-TRAP-0245]
IC50: 117 nM
